Results published in publication PMC6717004 (Toxicology in vitro : an international journal published in …, 2019).
Read-outs that look alike come from different tables or passages of the source. Marks after values point to notes of the source that are not given here.

How the values were obtained:
human plasma [1] = conditions: cited from earlier work; for reported Fub based on RED: human plasma, ref Wetmore et al.
pooled human plasma [2] = test: Rapid Equilibrium Dialysis; type: in vitro ADME; conditions: 10 μM, 37 °C, 4 hours, 8K MWCO membrane
[3] = type: in vitro ADME; conditions: RED with PBS in both chambers, 10 μM, 4 hours, 8K MWCO
human plasma [4] = conditions: ref Musteata et al., 2006; cited from earlier work
pooled human plasma [5] = test: Solid Phase Micro-Extraction; type: in vitro ADME; conditions: 10 μM, room temperature, C18 fibers
[6] = ref Wetmore, 2015, Wetmore et al., 2012

In the case of c1cc2c3c(cccc3c1)CC2 [Acenaphthene], the “Literature % unbound (equilibrium dialysis)” value (human plasma [1]; [6]) is given as 4.5%^b.
For c1ccc(-c2ccccc2)cc1 [Biphenyl], the “Literature % unbound (equilibrium dialysis)” value (human plasma [1]) is given as 1.6%^b.
In the case of CNC(=O)Oc1cccc2ccccc12 [Carbaryl], the “reported Fub based on RED” value (human plasma [1]; 2012) is given as 70% and the “Literature % unbound (equilibrium dialysis)” value (human plasma [1]; [6]) is given as 69%^b.
In the case of COc1cc(N)c(Cl)cc1C(=O)NC1CCN(CCCOc2ccc(F)cc2)CC1OC (stereo not drawn) [Cisapride, reference compound], the “unbound fraction (Fub) by RED” value (pooled human plasma [2]) is listed as “most highly bound” and the “Literature % unbound (equilibrium dialysis)” value (human plasma [1]; ref FDA package insert) is listed as 2-3%^c.
For CC(C)NCC(O)c1ccc(O)c(O)c1 (stereo not drawn) [Isoproterenol, reference compound], the “unbound fraction (Fub) by RED” value (pooled human plasma [2]) is given as “mostly free” and the “Literature % unbound (equilibrium dialysis)” value (human plasma [1]; ref Kelly and McDevitt, 1978) is given as 35%^a.
For c1ccc2ccccc2c1 [Naphthalene], the “protein-free free fraction (equilibration percentage)” value [3] is given as over 80% and the “reported Fub based on RED” value (human plasma [1]; 2012) is given as ~ 2%.
In the case of CC1(C)C(C=C(Cl)Cl)C1C(=O)OCc1cccc(Oc2ccccc2)c1 (stereo not drawn) [Permethrin], the “reported Fub based on RED” value (human plasma [1]; 2012) is listed as 0%.
For Cc1nc(N(C)C)nc(OC(=O)N(C)C)c1C [Pirimicarb], the “Literature % unbound (equilibrium dialysis)” value (human plasma [1]; [6]) is listed as 16%^b.
In the case of CC(C)NCC(O)COc1cccc2ccccc12 (stereo not drawn) [Propranolol], the “Literature % unbound (SPME)” value (human plasma [4]) is given as 25%^e and the “unbound fraction (Fub) by SPME” value (pooled human plasma [5]) is given as “consistent with the reported value”.
In the case of c1cc2ccc3cccc4ccc(c1)c2c34 [Pyrene], the “Literature % unbound (equilibrium dialysis)” value (human plasma [1]; [6]) is listed as 2.4%^b.
